{
  "source": "patent US9572811B2",
  "about": "“Treatment of dry eye” (PRINCIPIA BIOPHARMA INC., priority 2012, dated 2017)",
  "data": [
    {"target": "human recombinant Btk (Homo sapiens (Human), UniProt Q06187)", "sequence (Q06187 whole entry)": "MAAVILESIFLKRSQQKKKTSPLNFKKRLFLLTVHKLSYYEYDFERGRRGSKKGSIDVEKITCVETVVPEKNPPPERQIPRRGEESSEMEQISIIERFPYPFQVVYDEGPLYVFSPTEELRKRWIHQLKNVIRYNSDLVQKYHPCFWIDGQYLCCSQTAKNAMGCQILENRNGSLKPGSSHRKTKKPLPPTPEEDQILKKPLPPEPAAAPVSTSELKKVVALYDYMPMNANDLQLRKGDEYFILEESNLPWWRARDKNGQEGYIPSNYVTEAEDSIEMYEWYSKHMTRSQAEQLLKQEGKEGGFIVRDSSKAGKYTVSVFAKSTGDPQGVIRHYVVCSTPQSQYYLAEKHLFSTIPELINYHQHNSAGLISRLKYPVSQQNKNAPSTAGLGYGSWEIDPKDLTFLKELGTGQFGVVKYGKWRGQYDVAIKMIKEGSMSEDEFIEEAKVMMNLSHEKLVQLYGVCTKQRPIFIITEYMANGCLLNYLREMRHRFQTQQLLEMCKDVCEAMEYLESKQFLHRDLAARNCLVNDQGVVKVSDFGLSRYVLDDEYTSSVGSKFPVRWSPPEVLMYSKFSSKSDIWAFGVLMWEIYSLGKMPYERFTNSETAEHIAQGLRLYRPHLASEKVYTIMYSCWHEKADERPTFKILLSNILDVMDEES", "assay": "Btk enzymatic activity assay (Caliper-based kinase assay)", "assay_type": "biochemical", "conditions": "human recombinant Btk 2 nM, ATP 40 μM, peptide substrate 1 μM, room temperature 3 h; read-out: IC50 (μm)", "units": {"IC50": "nM"}, "protocol": "A Caliper-based kinase assay (Caliper Life Sciences, Hopkinton, Mass.) was used to measure inhibition of Btk kinase activity of a compound of Formula (I). […] The reaction was then terminated with EDTA, final concentration 20 mM and the phosphorylated reaction product was quantified on a Caliper Desktop Profiler (Caliper LabChip 3000). […] This value is presented as the IC50.", "values": [
      {"smiles": "CC(C)(C=C(C#N)C(=O)N1CCC[C@@H]1Cn1nc(-c2ccc(Oc3ccccc3)cc2F)c2c(N)ncnc21)N1CCOCC1", "note": "[Cpd 95A, (R)-2-(2-((4-amino-3-(2-fluoro-4-phenoxyphenyl)-1H-pyrazolo[3,4-d]pyrimidin-1-yl)methyl)pyrrolidine-1-carbonyl)-4-methyl-4-morpholinopent-2-enenitrile]", "IC50": 26.5},
      {"smiles": "N#CC(=CC1CC1)C(=O)N1CCC[C@@H]1Cn1nc(-c2ccc(Oc3c(F)cccc3F)cc2F)c2c(N)ncnc21", "note": "[Cpd 44A, (R)-2-(2-((4-amino-3-(2-fluoro-4-(2,6-difluorophenoxy)phenyl)-1H-pyrazolo[3,4-d]pyrimidin-1-yl)methyl)pyrrolidine-1-carbonyl)-3-cyclopropylacrylonitrile]", "IC50": 5},
      {"smiles": "CC(C)(C=C(C#N)C(=O)N1CCC[C@H]1Cn1nc(-c2ccc(Oc3ccccc3)cc2F)c2c(N)ncnc21)NC1CC1", "note": "[Cpd 87B, (S)-2-(2-((4-amino-3-(2-fluoro-4-phenoxyphenyl)-1H-pyrazolo[3,4-d]pyrimidin-1-yl)methyl)pyrrolidine-1-carbonyl)-4-(cyclopropylamino)-4-methylpent-2-enenitrile]", "IC50": 12},
      {"smiles": "CN(C)C(C)(C)C=C(C#N)C(=O)N1CCC[C@@H]1Cn1nc(-c2ccc(Oc3cccc(F)c3F)cc2F)c2c(N)ncnc21", "note": "[Cpd 106A, (R)-2-(2-((4-amino-3-(4-(2,3-difluorophenoxy)-2-fluorophenyl)-1H-pyrazolo[3,4-d]pyrimidin-1-yl)methyl)pyrrolidine-1-carbonyl)-4-(dimethylamino)-4-methylpent-2-enenitrile]", "IC50": 6},
      {"smiles": "C[C@H](Cn1nc(-c2ccc(Oc3ccccc3)cc2F)c2c(N)ncnc21)NC(=O)C(C#N)=CC(C)(C)N", "note": "[Cpd 188]", "IC50": 0.7},
      {"smiles": "C[C@@H](Cn1nc(-c2ccc(Oc3ccccc3)cc2F)c2c(N)ncnc21)NC(=O)C(C#N)=CC1CC1", "note": "[Cpd 197B]", "IC50": 32.5},
      {"smiles": "CCOC(C)(C)C=C(C#N)C(=O)N1CCC[C@@H]1Cn1nc(-c2ccc(Oc3ccccc3)cc2F)c2c(N)ncnc21", "note": "[Cpd 89A, (R)-2-(2-((4-amino-3-(2-fluoro-4-phenoxyphenyl)-1H-pyrazolo[3,4-d]pyrimidin-1-yl)methyl)pyrrolidine-1-carbonyl)-4-ethoxy-4-methylpent-2-enenitrile]", "IC50": 3100},
      {"smiles": "COCCNC(C)(C)C=C(C#N)C(=O)N1CCC[C@H]1Cn1nc(-c2ccc(Oc3ccccc3)cc2F)c2c(N)ncnc21", "note": "[Cpd 88B, (S)-2-(2-((4-amino-3-(2-fluoro-4-phenoxyphenyl)-1H-pyrazolo[3,4-d]pyrimidin-1-yl)methyl)pyrrolidine-1-carbonyl)-4-((2-methoxyethyl)amino)-4-methylpent-2-enenitrile]", "IC50": 29},
      {"smiles": "CC(C)(C=C(C#N)C(=O)N1CCC[C@H]1Cn1nc(-c2ccc(Oc3ccccc3)cc2F)c2c(N)ncnc21)N1CCOCC1", "note": "[Cpd 95B, (S)-2-(2-((4-amino-3-(2-fluoro-4-phenoxyphenyl)-1H-pyrazolo[3,4-d]pyrimidin-1-yl)methyl)pyrrolidine-1-carbonyl)-4-methyl-4-morpholinopent-2-enenitrile]", "IC50": 3.2},
      {"smiles": "CNC(C)(C)C=C(C#N)C(=O)N1CCC[C@@H]1Cn1nc(-c2ccc(Oc3cccc(F)c3F)cc2F)c2c(N)ncnc21", "note": "[Cpd 105A, (R)-2-(2-((4-amino-3-(4-(2,3-difluorophenoxy)-2-fluorophenyl)-1H-pyrazolo[3,4-d]pyrimidin-1-yl)methyl)pyrrolidine-1-carbonyl)-4-methyl-4-(methylamino)pent-2-enenitrile]", "IC50": 1.3},
      {"smiles": "CCOC(C)(C)C=C(C#N)C(=O)N1CCC[C@H]1Cn1nc(-c2ccc(Oc3ccccc3)cc2F)c2c(N)ncnc21", "note": "[Cpd 89B, (S)-2-(2-((4-amino-3-(2-fluoro-4-phenoxyphenyl)-1H-pyrazolo[3,4-d]pyrimidin-1-yl)methyl)pyrrolidine-1-carbonyl)-4-ethoxy-4-methylpent-2-enenitrile]", "IC50": 6600},
      {"smiles": "N#CC(=CC1CC1)C(=O)N1CCC[C@H]1Cn1nc(-c2ccc(Oc3c(F)cccc3F)cc2F)c2c(N)ncnc21", "note": "[Cpd 44B, (S)-2-(2-((4-amino-3-(2-fluoro-4-(2,6-difluorophenoxy)phenyl)-1H-pyrazolo[3,4-d]pyrimidin-1-yl)methyl)pyrrolidine-1-carbonyl)-3-cyclopropylacrylonitrile]", "IC50": 3},
      {"smiles": "CN(C)C(C)(C)C=C(C#N)C(=O)N1CCC[C@H]1Cn1nc(-c2ccc(Oc3cccc(F)c3F)cc2F)c2c(N)ncnc21", "note": "[Cpd 106B, (S)-2-(2-((4-amino-3-(4-(2,3-difluorophenoxy)-2-fluorophenyl)-1H-pyrazolo[3,4-d]pyrimidin-1-yl)methyl)pyrrolidine-1-carbonyl)-4-(dimethylamino)-4-methylpent-2-enenitrile]", "IC50": 1.5},
      {"smiles": "CNC(C)(C)C=C(C#N)C(=O)N1CCC[C@H]1Cn1nc(-c2ccc(Oc3cccc(F)c3F)cc2F)c2c(N)ncnc21", "note": "[Cpd 105B, (S)-2-(2-((4-amino-3-(4-(2,3-difluorophenoxy)-2-fluorophenyl)-1H-pyrazolo[3,4-d]pyrimidin-1-yl)methyl)pyrrolidine-1-carbonyl)-4-methyl-4-(methylamino)pent-2-enenitrile]", "IC50": 25.5},
      {"smiles": "[C-]#[N+]C(=CC1CC1)C(=O)N1CCC[C@@H](n2nc(-c3ccc(Oc4ccccc4)cc3F)c3c(N)ncnc32)C1", "note": "[Cpd 22B]", "IC50": 2.6},
      {"smiles": "N#CC(=CC1CC1)C(=O)NC1CCC(n2nc(-c3ccc(Oc4ccccc4)cc3)c3c(N)ncnc32)CC1", "note": "(stereo not shown) [Cpd 11, N-((1s,4s)-4-(4-amino-3-(4-phenoxyphenyl)-1H-pyrazolo[3,4-d]pyrimidin-1-yl)cyclohexyl)-2-cyano-3-cyclopropylacrylamide]", "IC50": 14},
      {"smiles": "COc1cc(-c2nn(CC3CCCN3C(=O)C(C#N)=CC3CC3)c3ncnc(N)c23)ccc1Oc1ccc(Cl)c(Cl)c1", "note": "(stereo not shown) [Cpd 5]", "IC50": 1},
      {"smiles": "N#CC(=CC1CC1)C(=O)N1CCC(n2nc(-c3ccc(Oc4ccccc4)cc3)c3c(N)ncnc32)CC1", "note": "[Cpd 3, 2-(4-(4-amino-3-(4-phenoxyphenyl)-1H-pyrazolo[3,4-d]pyrimidin-1-yl)piperidine-1-carbonyl)-3-cyclopropylacrylonitrile]", "IC50": 175}
    ]},
    {"target": "human recombinant Btk (Homo sapiens (Human), UniProt Q06187)", "assay": "Btk enzymatic activity assay (Caliper-based kinase assay)", "assay_type": "biochemical", "conditions": "read-out: IC50 (μm)", "units": {"IC50": "nM"}, "values": [
      {"smiles": "NC(=O)C(=CC1CC1)C(=O)N1CCC[C@@H](n2nc(-c3ccc(Oc4ccccc4)cc3)c3c(N)ncnc32)C1", "note": "[Cpd 30A, (R)-2-(3-(4-amino-3-(4-phenoxyphenyl)-1H-pyrazolo[3,4-d]pyrimidin-1-yl)piperidine-1-carbonyl)-3-cyclopropylacrylamide]", "IC50": 1.7}
    ]}
  ]
}
